Measured values: ChEMBL document CHEMBL3638678, “4-substituted-cyclohexylamino-4-piperidinyl-acetamide antagonists of CCR2” (2014)

Molecular target: C-C chemokine receptor type 2 (Homo sapiens, UniProt P41597)
Assay: Binding Assay: MCP-1 Receptor Binding Assay in THP-1 Cells Human monocytic cell line THP-1 cells were obtained from American Type Culture Collection (Manassas, Va., USA). The THP-1 cells were grown in RPMI-1640 (RPMI: Roswell Park Memorial Institute Medium-cell culture growth media) supplemented with 10% fetal bovine serum in a humidified 5% CO2 atmosphere at 37 C. The cell density was maintained between 0.5x10^6 cells/mL.THP-1 (cells were incubated with 0.5 nM 125I labeled MCP-1 (Perkin-Elmer Life Sciences, Inc. Boston, Mass.) in the presence of varying concentrations of either unlabeled MCP-1 (R & D Systems, Minneapolis, Minn.) or test compound for 2 hours at 30 C. in a 96 well plate. Cells were then harvested onto a filter plate, dried, and 20 uL of Microscint 20 was added to each well. Plates were counted in a TopCount NXT, Microplate Scintillation & Luminescence Counter (Perkin-Elmer Life Sciences, Inc. Boston, Mass.).
Type: cell-based

Sequence of C-C chemokine receptor type 2 (P41597 whole entry): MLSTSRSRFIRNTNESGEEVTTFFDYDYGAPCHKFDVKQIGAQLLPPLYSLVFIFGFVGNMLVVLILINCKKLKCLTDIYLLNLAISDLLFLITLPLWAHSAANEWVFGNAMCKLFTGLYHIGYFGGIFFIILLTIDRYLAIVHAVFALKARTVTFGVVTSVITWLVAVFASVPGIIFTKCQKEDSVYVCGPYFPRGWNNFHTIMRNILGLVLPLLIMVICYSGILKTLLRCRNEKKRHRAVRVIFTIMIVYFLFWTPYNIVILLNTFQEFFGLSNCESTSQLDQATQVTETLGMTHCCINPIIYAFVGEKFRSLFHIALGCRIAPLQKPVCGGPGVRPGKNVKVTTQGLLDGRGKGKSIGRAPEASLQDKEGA

SMILES: CC1(C)Cc2cc(/C=C/C(=O)N3CCC(C(NC4CCC(c5c[nH]c6ccccc56)CC4)C(N)=O)CC3)ccc2O1 (stereo unspecified)
- IC50: 1100 nM
